The results in this text go back to patent US10201530B2, “Treatment of BRCA1-defective cancer or resistant cancers” (City of Hope, priority 2014, dated 2019).

For data set [1], the system named is γ-H2AX, phospho-p53, phospho-ATM, foxo3, Rad51, BRCA1. Put plainly: DDR-associated proteins in A549 cells (Western blot, immunofluorescence). The format is cell-based, human. The method, then:
Immunofluorescence experiments were conducted as described previously (21,22). Specifically, A549 cells were grown on glass coverslips. After treatment with COH29 (1 or 10 μM) for 24 or 48 hours, cells were fixed with 4% paraformaldehyde for 10 min and permeabilizsd with TRITON™ X-100 (0.5%). The coverslips were washed with phosphate-buffered saline (PBS) and blocked with PBS-containing 2% bovine serum albumin (BSA), incubated with an Ab specific to FOXO3 or ATM-pS1981 or γ-H2AX or p53-pS15 (1:50-1:200 dilution), followed by Alexa 488-conjugated anti-rabbit or anti-mouse (1:200). Alexa 594-conjugated anti-goat (1:100) secondary Abs (Molecular Probes). Cells were incubated with 4′,6-diamidino-2-phenylindole (DAP1; Sigma) to stain the nuclei. Specific staining was visualized and images were captured with a Leica SF2 AOBS confocal laser scanning microscope. To measure foci-positive cells, we used ˜300 cells randomly captured by confocal microscopy. The percentages of considering foci-positive cells were calculated from cells containing at least five foci. Each error bar presented is the mean of standard deviation.
For subcellular fractionation, cells were trypsinized and washed with cold PBS solution twice. After centrifugation at 1,200 g for 5 min, cells were incubated in buffer (50 mM HEPES, pH 7.5, 150 mM NaCl, 1 mM EDTA) containing 0.2% NONIDET™ P-40 (NP-40), supplemented with protease inhibitors (5 μg/ml each of pepstatin, leupeptin, and aprotinin) and phosphatase inhibitors on ice for 5 min. Following centrifugation at 1,000 g for 5 min, the supernatant was collected (i.e., cytoplasmic fraction) and pellets were washed with the same buffer twice. The washed samples were extracted for 40 min on ice with fractionation buffer containing 0.5% NP-40 for nuclear fraction. All the samples were sonicated and clarified by centrifugation at 16,000 g for 15 min. Protein concentrations of all fractions were determined with Bio-Rad Protein Assay (Bio-Rad Laboratories, Hercules, Calif.). Immunoblotting was performed as described previously (21,22). Briefly, equal amounts of boiled protein samples were subjected to SDS-polyacrylamide gel electrophoresis (PAGE) and transferred onto nitrocellulose membranes (Bio-Rad Laboratories). Membranes were blocked for 1 hour in 3% BSA in Tris buffered saline containing 0.05% Tween 20 (TBST) and incubated for 1 hour with primary antibody (1:500 or 1:1000) diluted in TBST containing 1% BSA. After two washes with TBST, membranes were incubated for 1 hour with horseradish peroxidase-conjugated secondary Abs (1:3000 dilution) at room temperature. The immunoblots were visualized on film with the West-Q chemi-luminescence kit (GenDEPOT, Barker, Tex.).
(In general: In western blotting, separated proteins are transferred to a membrane and probed.)

Data set [2] relates to MDA-MB-231. As to the kind of experiment: Cytotoxicity, MDA-MB-231 cells. In kind it is cell-based, human. The following applies: Homo sapiens; MDA-MB-231, TNBC; read-out: IC50, mean ± SEM. The method, then:
(§1) All cell lines were acquired from the American Type Culture Collection (Manassas, Va., USA). Cells were maintained in RPMI 1640 medium (Mediatech) with 10% fetal bovine serum, 2 mM glutamine, and 100 U of penicillin and 100 μg of streptomycin per ml of medium (Sigma) at 37° C. in 5% CO2. To isolate HCC1437+BRCA1 cells, parental HCC1937 cells were transfected with pcDNA3.1 plasmid expressing full-length BRCA1 cDNA. Stable transfectant clones were selected and used for drug sensitivity assays. For stable transfection, cells at 30-40% confluence were incubated overnight with […] of plasmid DNA, using FUGENE® 6 transfectin reagent (Roche Molecular Biochemical, Monza, Italy) according to the manufacturer's instructions. Cells were then selected in puromycin (1 μg/ml) (Invitrogen life Technologies, La Jolla, Calif., USA.) After 20 to 30 days, viable puromycin-resistant colonies from HCC1937 transfections were expanded and screened. The clones that stably expressed […] and retained growth potential were assayed for BRCA1 expression by Western blot analysis. By Western blot analysis, we evaluated the restoration of BRCA1 expression in the puromycin-resistant cDNA/transfectant cells.
(§2) The MTT cytotoxicity assay was performed by incubating with MTT and monitoring the MTT formazan formed by viable cells with a microplate reader at a wavelength of 560 nm; the survival, ratio was determined using the formula: (Atest−Ablank)/(Acontrol−Ablank)×100%. The cytotoxicity was determined in 96-well plates using the semiautomatic fluorescence-based Digital Imaging Microscopy System (DIMSCAN). DIMSCAN uses digital imaging microscopy to quantify viable cells, which selectively accumulate FDA (fluorescein diacetate; Alfa Aesar, Ward Hill, Mass.). DIMSCAN is capable of measuring cytotoxicity over a 4 log dynamic range by quantifying total fluorescence per well (which is proportional to the number of viable cells) after elimination of the background fluorescence by digital thresholding and eosin Y (Mallinckrodt Baker, Center Valley, Pa.) quenching. Cells were seeded into 96-well plates in 100 μL of complete medium at 2,000 to 5,000 cells per well depending on cell line growth rate. After overnight incubation, test compound was added to each well at various concentrations in 50 μL of culture medium. After incubation with the drugs for 96 hours at 37° C., FDA (final concentration: […]) and eosin Y [final concentration: 0.1% (w/v)] were added to each well and the cells were incubated for an additional 20 minutes at 37° C. Total fluorescence per well was then measured using DIMSCAN, and the results were expressed as the ratio of the fluorescence in treated wells to the fluorescence in untreated wells (survival fraction).

The subject of data set [3] is TOV112D. As to the kind of experiment: Cytotoxicity, TOV112D cells. In kind it is cell-based, human. The following applies: Homo sapiens, read-out: IC50, mean ± SEM. The method, then:
as §1, §2

Data set [4] deals with OVCAR-4. As to the kind of experiment: Cytotoxicity, OVCAR-4 cells. The format is cell-based, human. The following applies: Homo sapiens, read-out: IC50, mean ± SEM. The method, then:
as §1, §2

In data set [5] the test system is zebrafish embryos. Put plainly: Zebrafish genotoxicity assay. The following applies: wild-type zebrafish embryos, COH29 0-100 μM. In kind it is in vivo, Danio rerio. The method, then:
Zebrafish (Danio rerio) were obtained from zebrafish Core facility of Taipei Medical University and maintained at 28° C. on a 14 h light/10 h dark cycle. Embryos were incubated at 28° C. and different developmental stages were determined as described (25). Wild-type embryos were treated with different concentrations of HU (0, 5, […], 20, 50 mM) or COH29 (0, 10, 20, 50, 100 μM) at 20 hpf to evaluate the mutagenic effect. Fifteen embryos were treated per well condition. […] Embryos were observed using an Olympus IX70-FLA inverted fluorescence microscope. Images were taken using SPOT digital camera system (Diagnostic Instruments, Sterling Heights, Mich., USA) and assembled with ImageJ software (26).

Data set [6] has as its system HCC1937. Put plainly: Cytotoxicity, HCC1937 cells. In kind it is cell-based, human. The following applies: Homo sapiens; HCC1937, triple negative, BRCA1 mutant; COH29 72 h. The method, then: as §1
The MTT cytotoxicity assay was performed by incubating with MTT and monitoring the MTT formazan formed by viable cells with a microplate reader at a wavelength of 560 nm; the survival, ratio was determined using the formula: (Atest−Ablank)/(Acontrol−Ablank)×100%. The cytotoxicity was determined in 96-well plates using the semiautomatic fluorescence-based Digital Imaging Microscopy System (DIMSCAN). DIMSCAN uses digital imaging microscopy to quantify viable cells, which selectively accumulate FDA (fluorescein diacetate; Alfa Aesar, Ward Hill, Mass.). DIMSCAN is capable of measuring cytotoxicity over a 4 log dynamic range by quantifying total fluorescence per well (which is proportional to the number of viable cells) after elimination of the background fluorescence by digital thresholding and eosin Y (Mallinckrodt Baker, Center Valley, Pa.) quenching. […]

What is called IC50 is the concentration that gives 50% inhibition. As to `O=C(Nc1nc(-c2ccc(O)c(O)c2)c(-c2ccccc2)s1)c1ccc(O)c(O)c1` [COH29], the “nuclear γ-H2AX, phospho-p53, phospho-ATM” value in data set [1] (A549 BRCA1 wild-type NSCLC cells, 48 h) is “induced accumulation of γ-H2AX, phospho-p53, and phospho-ATM in the nucleus”. For the same molecule, the “nuclear foxo3 and p27” value in data set [1] (A549 cells) was “induction of foxo3 and its target protein p27 in the nucleus”. Moreover, in data set [1] (A549 cells, 24 h), the “BRCA1 protein level and Rad51 foci formation” value was “suppressed the protein level of BRCA1 and Rad51 foci formation”. In addition, the “Rad51 expression, Western analysis” value in data set [1] (nucleus of A549 cells) is “downregulated in the nucleus”. Further, the IC50 in data set [2] amounted to 9.7 ± 1.52 µM; in data set [3], 16 ± 2.08 µM; in data set [4], 11.2 ± 1.51 µM; in data set [6] it was 7.25 ± 0.64 µM. The viability entry in data set [5] is on record as “no developmental defects (FIG. 5C) or decrease in viability”. Besides, the developmental defects result in data set [5] (HU 0-50 mM) was “no developmental defects”.
